# Where two headings read alike, the source gives them in different places.
# Legend:
# [1] = molecular target: T1, M3 subtype muscarinic receptor (Sus scrofa, UniProt P11483); assay: ACh-induced short-circuit current (ΔIsc) in cultured airway mucus gland cells, Ussing chamber, Schild dose-ratio method; format: cell-based, swine; conditions: for Muscarinic inhibition (pA2): Schild dose-ratio method, slope set to 1, inhibition of ACh-induced ΔIsc, pA2 = -log Ki, mean ± SEM; for effect on the cholinergic (ACh) response / antimuscarinic action: at highest drug concentration tested: cetirizine 100 μM, loratadine 30 μM (Table 1; abstract 10 μM), fexofenadine 10 μM
# T1 construct: Tracheal submucosal gland cells were isolated from the tracheal epithelium; endogenous in cells; host or cells: primary swine tracheal submucosal (mucus) gland cells in culture
# H1 receptor = molecular target: T2, H1 receptor (Sus scrofa, UniProt K9IVW0); assay: histamine-induced short-circuit current (ΔIsc) in cultured airway mucus gland cells, Ussing chamber; format: cell-based, swine
# T2 construct: Tracheal submucosal gland cells were isolated from the tracheal epithelium; endogenous in cells; host or cells: primary swine tracheal submucosal (mucus) gland cells in culture
# histamine H1 receptor = conditions: radioligand binding assays; ref 18 Anthes et al.; cited from earlier work
# [2] = molecular target: muscarinic receptors in the cerebral cortex; conditions: read-out: Ki against muscarinic receptors, radioligand (QNB) binding, all muscarinic subtypes, ref 16 Kubo et al.; cited from earlier work
# [3] = read-out: H1 receptor inhibition (~1/2 max-μM)
# T2 sequence (K9IVW0 1-472): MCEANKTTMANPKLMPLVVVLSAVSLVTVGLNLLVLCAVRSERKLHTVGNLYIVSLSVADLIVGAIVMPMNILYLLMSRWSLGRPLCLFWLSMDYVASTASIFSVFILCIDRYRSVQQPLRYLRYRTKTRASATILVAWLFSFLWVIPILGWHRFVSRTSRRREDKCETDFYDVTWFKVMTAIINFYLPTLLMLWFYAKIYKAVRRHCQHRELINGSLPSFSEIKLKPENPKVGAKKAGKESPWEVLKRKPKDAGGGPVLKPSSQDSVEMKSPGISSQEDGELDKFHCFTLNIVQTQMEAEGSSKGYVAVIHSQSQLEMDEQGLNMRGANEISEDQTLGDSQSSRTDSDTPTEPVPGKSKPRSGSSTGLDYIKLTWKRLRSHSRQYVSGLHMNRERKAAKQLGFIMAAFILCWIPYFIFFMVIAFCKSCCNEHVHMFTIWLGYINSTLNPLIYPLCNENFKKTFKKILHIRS
# T1 sequence (P11483 whole entry): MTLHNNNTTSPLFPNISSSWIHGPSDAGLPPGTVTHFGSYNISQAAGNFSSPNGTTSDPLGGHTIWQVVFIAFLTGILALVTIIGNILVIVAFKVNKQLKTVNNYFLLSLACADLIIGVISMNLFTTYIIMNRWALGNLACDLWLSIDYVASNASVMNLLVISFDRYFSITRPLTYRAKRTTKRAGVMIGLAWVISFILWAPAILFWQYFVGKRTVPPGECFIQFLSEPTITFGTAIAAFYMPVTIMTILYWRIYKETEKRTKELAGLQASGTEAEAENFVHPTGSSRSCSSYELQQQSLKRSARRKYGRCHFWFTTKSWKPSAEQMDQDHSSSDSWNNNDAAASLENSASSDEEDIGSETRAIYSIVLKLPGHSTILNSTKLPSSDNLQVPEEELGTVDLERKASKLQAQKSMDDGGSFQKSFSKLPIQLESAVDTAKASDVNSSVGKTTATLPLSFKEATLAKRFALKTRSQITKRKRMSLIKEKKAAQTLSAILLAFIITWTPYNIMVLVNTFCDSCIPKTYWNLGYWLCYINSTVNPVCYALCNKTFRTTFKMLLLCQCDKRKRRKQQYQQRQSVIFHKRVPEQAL
structure (smiles),measurement,setting,value
COc1ccccc1CNCCCCCCNCCCCCCCCNCCCCCCNCc1ccccc1OC [Methoctramine],Kb,[1],2510 nM
same,Muscarinic inhibition (pA2),[1],5.6
"CC(=O)OCC[N+](C)(C)C [ACh, acetylcholine]",maximum increase in current (ΔIsc),[1],15.5 ± 1 μA/cm^2
CC(C)(C(=O)O)c1ccc(C(O)CCCN2CCC(C(O)(c3ccccc3)c3ccccc3)CC2)cc1 (centres unmarked) [Fexofenadine],IC50,H1 receptor; H1 receptor inhibition (~1/2 max-μM),0.25 µM
NCCc1c[nH]cn1 [histamine],maximum increase in current (ΔIsc),H1 receptor,19 ± 1 μA/cm^2
O=C(O)COCCN1CCN(C(c2ccccc2)c2ccc(Cl)cc2)CC1 (centres unmarked) [Cetirizine],IC50,H1 receptor; [3],0.12 µM
same,effect on the cholinergic (ACh) response / antimuscarinic action,[1],No effect (at 100 μM)
same,effect on the cholinergic (ACh) response / antimuscarinic action,[1]; listed as cetirizine,no effects
OCCOCCN1CCN(C(c2ccccc2)c2ccc(Cl)cc2)CC1 (centres unmarked) [Hydroxyzine],IC50,H1 receptor; [3],0.14 µM
same,Kb,histamine H1 receptor,10 nM
same,Ki,[2],3800 nM
same,Kb,[1],15800 nM
same,Ki,"[1]; M3 muscarinic receptor induced ΔIsc, from Schild analysis, read-out: estimated Ki for inhibition of muscarinic receptors",15000 nM
same,Muscarinic inhibition (pA2),[1],4.8

# From paper PMC1079883, “Effects of first and second generation antihistamines on muscarinic induced mucus gland cell ion transport” (BMC Pharmacology, 2005)
